Patent publication US6770597B2, “Benzohydrazide derivatives as herbicides and desiccant compositions containing them” (Ishihara Sangyo Kaisha, Ltd., priority 2002, dated 2004)

Key:
Format in all cases: in vivo
[1] = tested on: sicklepod (Cassia obtusifolia, CASOB); assay: Greenhouse herbicide screen, post-emerge application, phytotoxicity rating; conditions: POST emergent, 14 days after application, scale 0-100
Procedure, shortened: (§1)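 Crop and weed responses were judged visually on a 0–100 scale two weeks post-treatment. Treatments: acetone solutions, 15–1000 g ai/ha, sprayed at 187 l/ha onto pre-emerge soil or 2–3-leaf plants.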

[2] = tested on: cocklebur (Xanthium strumarium, XANST); assay: as above; conditions: POST emergent, 14 days after application, scale 0-100
Procedure, shortened: as §1

[3] = tested on: lambsquarters (Chenopodium album, CHEAL); assay: as above; conditions: POST emergent, 14 days after application, scale 0-100
Procedure, shortened: as §1

[4] = tested on: velvetleaf (Abutilon theophrasti, ABUTH); assay: as above; conditions: POST emergent, 14 days after application, scale 0-100
Procedure, shortened: as §1

[5] = tested on: green foxtail (Setaria viridis, SETVI); assay: as above; conditions: POST emergent, 14 days after application, scale 0-100
Procedure, shortened: as §1

[6] = tested on: barnyardgrass (Echinochloa crus-galli, ECHCG); assay: as above; conditions: POST emergent, 14 days after application, scale 0-100
Procedure, shortened: as §1

[7] = tested on: redroot pigweed (Amaranthus retrofiexus, AMARE); assay: as above; conditions: POST emergent, 14 days after application
Procedure, shortened: as §1

[8] = tested on: johnsongrass (Sorghum halepense, SORHA); assay: as above; conditions: POST emergent, 14 days after application, scale 0-100
Procedure, shortened: as §1

[9] = tested on: large crabgrass (Digitaria sanguinalis, DIGSA); assay: as above; conditions: POST emergent, 14 days after application, scale 0-100
Procedure, shortened: as §1

[10] = tested on: common ragweed (Ambrosia artemisiifolia L., AMBEL); assay: as above; conditions: POST emergent, 14 days after application, scale 0-100
Procedure, shortened: as §1

[11] = tested on: ivyleaf morningglory (Ipomoea hederacea, IPOHE); assay: as above; conditions: POST emergent, 14 days after application, scale 0-100
Procedure, shortened: as §1

[12] = tested on: field corn (Zea mays L., var. Dekalb 535, CORN); assay: Greenhouse herbicide screen, pre-emerge application, crop damage rating; conditions: PRE emergent, 14 days after application, rating scale 0-100
Excerpt: (§2) A standard greenhouse herbicide activity screening system was used to evaluate the herbicidal efficacy and crop safety of these test compounds. Seven broadleaf weed species including redroot pigweed (Amaranthus retrofiexus, AMARE), velvetleaf (Abutilon theophrasti, ABUTH), sicklepod (Cassia obtusifolia, CASOB), ivyleaf morningglory (Ipomoea hederacea, IPOHE), lambsquarters (Chenopodium album, CHEAL), common ragweed (Ambrosia artemisiifolia L., AMBEL), and cocklebur (Xanthium strumarium, XANST) were used as test species. Four grass weed species including green foxtail (Setaria viridis, SETVI), barnyardgrass (Echinochloa crus-galli, ECHCG), johnsongrass (Sorghum halepense, SORHA), and large crabgrass (Digitaria sanguinalis, DIGSA) were also used. In addition, four crop species, field corn (Zea mays L., var. Dekalb 535, CORN), soybean (Glycine max L., var. Pella 86, SOY), upland rice (Oryza sp., var.Cocodrie, RICE) and wheat (Triticum aestivum L.) were included.
(§3) All plants were grown in 10 cm square plastic pots which were filled with a sandy loam soil mix. For pre-emerge tests, seeds were planted one day prior to application of the test compounds. For post-emerge tests, seeds were planted 8-21 days prior to the test to allow emergence and good foliage development prior to application of the test substances. At the time of the post-emerge application, plants of all species were usually at the 2-3 leaf stage of development.
(§4) All test compounds were dissolved in acetone and applied to the test units in a volume of 187 l/ha. Test materials were applied at rates ranging from 15 g ai/ha to 1000 g ai/ha using a track sprayer equipped with a TJ8001E even flow flat fan spray nozzle. Plants were arranged on a shelf so that the top of the canopy (post-emerge) or top of the soil surface (pre-emerge) was 40-45 cm below the nozzle. Pressurized air was used to force the test solution through the nozzle as it was mechanically advanced (via electrically driven chain drive) over the top of all test plants/pots. This application simulates a typical commercial field herbicide application.
(§5) Pre-emergence tests were top watered immediately after treatment to incorporate the test materials, then routinely top-watered for normal growth. Post-emerge test units were always bottom-watered.
(§6) At 14 days after application of the test materials, phytotoxicity ratings were recorded. A rating scale of 0-100 was used as previously described in Research Methods in Weed Science, 2nd edition, B. Truelove, Ed., Southern Weed Science Society, Auburn University, Auburn, Ala., 1977. Briefly, “0” corresponds to no damage and “100” corresponds to complete death of all plants in the test unit. This scale was used both to determine efficacy against weed species and damage to crop species. Herbicide activity data for various compounds of this invention, which are shown by compound No. in Tables 1-12, are shown in Tables 13 and 14.

[13] = tested on: upland rice (Oryza sp., var.Cocodrie, RICE); assay: as above; conditions: PRE emergent, 14 days after application, rating scale 0-100
Excerpt: as §2, §3, §4, §5, §6

[14] = tested on: field corn (Zea mays L., var. Dekalb 535, CORN); assay: Greenhouse herbicide screen, post-emerge application, crop damage rating; conditions: POST emergent, 14 days after application, scale 0-100
Excerpt: as §2, §3, §4, §5, §6

[15] = tested on: upland rice (Oryza sp., var.Cocodrie, RICE); assay: as above; conditions: POST emergent, 14 days after application, scale 0-100
Excerpt: as §2, §3, §4, §5, §6

[16] = tested on: sicklepod (Cassia obtusifolia, CASOB); assay: Greenhouse herbicide screen, pre-emerge application, phytotoxicity rating; conditions: PRE emergent, 14 days after application, rating scale 0-100
Procedure, shortened: as §1

[17] = tested on: cocklebur (Xanthium strumarium, XANST); assay: as above; conditions: PRE emergent, 14 days after application, rating scale 0-100
Procedure, shortened: as §1

[18] = tested on: lambsquarters (Chenopodium album, CHEAL); assay: as above; conditions: PRE emergent, 14 days after application, rating scale 0-100
Procedure, shortened: as §1

[19] = tested on: velvetleaf (Abutilon theophrasti, ABUTH); assay: as above; conditions: PRE emergent, 14 days after application, rating scale 0-100
Procedure, shortened: as §1

[20] = tested on: green foxtail (Setaria viridis, SETVI); assay: as above; conditions: PRE emergent, 14 days after application, rating scale 0-100
Procedure, shortened: as §1

[21] = tested on: barnyardgrass (Echinochloa crus-galli, ECHCG); assay: as above; conditions: PRE emergent, 14 days after application, rating scale 0-100
Procedure, shortened: as §1

[22] = tested on: redroot pigweed (Amaranthus retrofiexus, AMARE); assay: as above; conditions: PRE emergent, 14 days after application, rating scale 0-100
Procedure, shortened: as §1

[23] = tested on: johnsongrass (Sorghum halepense, SORHA); assay: as above; conditions: PRE emergent, 14 days after application, rating scale 0-100
Procedure, shortened: as §1

[24] = tested on: large crabgrass (Digitaria sanguinalis, DIGSA); assay: as above; conditions: PRE emergent, 14 days after application, rating scale 0-100
Procedure, shortened: as §1

[25] = tested on: common ragweed (Ambrosia artemisiifolia L., AMBEL); assay: as above; conditions: PRE emergent, 14 days after application, rating scale 0-100
Procedure, shortened: as §1

[26] = tested on: ivyleaf morningglory (Ipomoea hederacea, IPOHE); assay: as above; conditions: PRE emergent, 14 days after application, rating scale 0-100
Procedure, shortened: as §1

## CCOC(=O)NNC(=O)c1cc(-n2c(=O)cc(C(F)(F)F)n(C)c2=O)c(F)cc1Cl [Compound 1-23]
[1]; 63 g ai/ha
  phytotoxicity rating CASOB: 98
[1]; 250 g ai/ha
  phytotoxicity rating CASOB: 98
[2]; 63 g ai/ha
  phytotoxicity rating XANST: 100
[2]; 250 g ai/ha
  phytotoxicity rating XANST: 100
[3]; 63 g ai/ha
  phytotoxicity rating CHEAL: 100
[3]; 250 g ai/ha
  phytotoxicity rating CHEAL: 100
[4]; 63 g ai/ha
  phytotoxicity rating ABUTH: 100
[4]; 250 g ai/ha
  phytotoxicity rating ABUTH: 100
[5]; 63 g ai/ha
  phytotoxicity rating SETVI: 55
[5]; 250 g ai/ha
  phytotoxicity rating SETVI: 99
[6]; 63 g ai/ha
  phytotoxicity rating ECHCO: 50
[6]; 250 g ai/ha
  phytotoxicity rating ECHCO: 75
[7]; 63 g ai/ha, scale 0-100 (0 no damage, 100 complete death)
  phytotoxicity rating AMARE: 100
[7]; 250 g ai/ha, scale 0-100
  phytotoxicity rating AMARE: 100
[8]; 63 g ai/ha
  phytotoxicity rating SORHA: 70
[8]; 250 g ai/ha
  phytotoxicity rating SORHA: 99
[9]; 63 g ai/ha
  phytotoxicity rating DIGSA: 75
[9]; 250 g ai/ha
  phytotoxicity rating DIGSA: 75
[10]; 63 g ai/ha
  phytotoxicity rating AMBEL: 85
[10]; 250 g ai/ha
  phytotoxicity rating AMBEL: 100
[11]; 63 g ai/ha
  phytotoxicity rating IPOHE: 98
[11]; 250 g ai/ha
  phytotoxicity rating IPOHE: 100
[12]; 63 g ai/ha
  crop damage rating CORN: 80
[12]; 250 g ai/ha
  crop damage rating CORN: 100
[13]; 63 g ai/ha
  crop damage rating RICE: 45
[13]; 250 g ai/ha
  crop damage rating RICE: 85
[14]; 63 g ai/ha
  crop damage rating CORN: 80
[14]; 250 g ai/ha
  crop damage rating CORN: 100
[15]; 63 g ai/ha
  crop damage rating RICE: 45
[15]; 250 g ai/ha
  crop damage rating RICE: 85
[16]; 63 g ai/ha
  phytotoxicity rating CASOB: 98
[16]; 250 g ai/ha
  phytotoxicity rating CASOB: 98
[17]; 63 g ai/ha
  phytotoxicity rating XANST: 100
[17]; 250 g ai/ha
  phytotoxicity rating XANST: 100
[18]; 63 g ai/ha
  phytotoxicity rating CHEAL: 100
[18]; 250 g ai/ha
  phytotoxicity rating CHEAL: 100
[19]; 63 g ai/ha
  phytotoxicity rating ABUTH: 100
[19]; 250 g ai/ha
  phytotoxicity rating ABUTH: 100
[20]; 63 g ai/ha
  phytotoxicity rating SETVI: 55
[20]; 250 g ai/ha
  phytotoxicity rating SETVI: 99
[21]; 63 g ai/ha
  phytotoxicity rating ECHCG: 50
[21]; 250 g ai/ha
  phytotoxicity rating ECHCG: 75
[22]; 63 g ai/ha
  phytotoxicity rating AMARE: 100
[22]; 250 g ai/ha
  phytotoxicity rating AMARE: 100
[23]; 63 g ai/ha
  phytotoxicity rating SORHA: 70
[23]; 250 g ai/ha
  phytotoxicity rating SORHA: 99
[24]; 63 g ai/ha
  phytotoxicity rating DIGSA: 75
[24]; 250 g ai/ha
  phytotoxicity rating DIGSA: 75
[25]; 63 g ai/ha
  phytotoxicity rating AMBEL: 85
[25]; 250 g ai/ha
  phytotoxicity rating AMBEL: 100
[26]; 63 g ai/ha
  phytotoxicity rating IPOHE: 98
[26]; 250 g ai/ha
  phytotoxicity rating IPOHE: 100
